Test results from PMC2673050 (Journal of medicinal chemistry, 2009).

Assays:
Cytotoxicity testing [1] = type: cell-based; details: human, MCF7 breast cells
Cytotoxicity testing [2] = type: cell-based; details: human, LU lung cancer cells
Human QR2 = biological target: T1, Human QR2 (Homo sapiens, UniProt P16083); test: QR2 inhibition assay; type: biochemical; details: for Increase in QR2 inhibitory potency relative to compound 1: relative to natural product 1
T1 sequence (P16083 1-231): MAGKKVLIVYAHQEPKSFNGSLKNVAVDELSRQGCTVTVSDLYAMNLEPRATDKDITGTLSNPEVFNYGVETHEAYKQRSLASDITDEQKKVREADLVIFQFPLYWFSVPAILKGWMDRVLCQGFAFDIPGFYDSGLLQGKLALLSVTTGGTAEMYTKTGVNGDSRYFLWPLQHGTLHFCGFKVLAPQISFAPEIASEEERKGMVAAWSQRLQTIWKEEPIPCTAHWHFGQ

aromatase (CYP19A1) = biological target: T2, aromatase (CYP19A1) (Homo sapiens, UniProt P11511); test: Aromatase inhibition assay; type: biochemical
T2 sequence (P11511 1-503): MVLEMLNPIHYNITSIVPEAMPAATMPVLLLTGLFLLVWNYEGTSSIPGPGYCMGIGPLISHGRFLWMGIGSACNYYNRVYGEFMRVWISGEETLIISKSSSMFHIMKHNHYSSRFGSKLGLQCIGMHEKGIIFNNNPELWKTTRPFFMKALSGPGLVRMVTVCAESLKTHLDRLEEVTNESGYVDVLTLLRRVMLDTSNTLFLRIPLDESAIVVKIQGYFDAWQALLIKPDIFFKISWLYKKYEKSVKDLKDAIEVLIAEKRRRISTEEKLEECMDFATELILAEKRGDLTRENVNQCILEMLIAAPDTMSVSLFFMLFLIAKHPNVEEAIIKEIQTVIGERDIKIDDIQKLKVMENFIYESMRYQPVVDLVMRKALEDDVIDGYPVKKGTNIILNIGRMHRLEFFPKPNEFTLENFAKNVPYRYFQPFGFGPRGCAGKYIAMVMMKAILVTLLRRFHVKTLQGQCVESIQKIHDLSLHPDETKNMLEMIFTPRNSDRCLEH

[3] = tested on: four different cell lines; test: Cytotoxicity, overall statement for four cell lines; type: cell-based
[4] = tested on: Salmonella typhimurium strain TM677; details: S. typhimurium TM677; cited from earlier work
[5] = tested on: mouse mammary gland organ culture (MMOC); details: cited from earlier work

Row | SMILES | IC50 at 72 h (Cytotoxicity testing [1]) [µM] | IC50 at 72 h (Cytotoxicity testing [2]) [µM] | Aromatase inhibitory activity (in words) (aromatase (CYP19A1)) | also measured
1 | Cc1cc(=O)[nH]c2c3c(ccc12)OCO3 [1a, 6-Methyl-[1,3]dioxolo[4,5-h]quinolin-8(9H)-one] | > 98.5 | > 98.5 | – | –
2 | Cc1cc(=O)n(C)c2c3c(ccc12)OCO3 [1b, 6,9-Dimethyl-[1,3]dioxolo[4,5-h]quinolin-8(9H)-one] | > 92.1 | > 92.1 | – | Increase in QR2 inhibitory potency relative to compound 1 (Human QR2): more than 8 fold
3 | Cc1cc(=O)[nH]c2ccccc12 [1c, 4-Methylquinolin-2(1H)-one] | > 126 | > 126 | inactive | QR2 inhibitory activity (in words) (Human QR2): inactive
4 | Cc1cc(=O)n(C)c2ccccc12 [1d, 1,4-Dimethylquinolin-2(1H)-one] | > 116 | > 116 | inactive | Increase in QR2 inhibitory potency relative to compound 1 (Human QR2): approximately 3 fold
5 | COc1cccc2c(C)cc(=O)[nH]c12 [1e, 8-Methoxy-4-methylquinolin-2(1H)-one] | > 106 | > 106 | not active | –
6 | COc1cccc2c(C)cc(=O)n(C)c12 [1f, 8-Methoxy-1,4-dimethylquinolin-2(1H)-one] | > 98.5 | > 98.5 | – | Increase in QR2 inhibitory potency relative to compound 1 (Human QR2): approximately 10 fold
7 | COc1ccc2c(C)cc(=O)[nH]c2c1OC [1g, 7,8-Dimethoxy-4-methylquinolin-2(1H)-one] | > 91.3 | > 91.3 | – | –
8 | COc1ccc2c(C)cc(=O)n(C)c2c1OC [1h, 7,8-Dimethoxy-1,4-dimethylquinolin-2(1H)-one] | > 85.8 | > 85.8 | – | –
9 | COc1cc(OC)c2[nH]c(=O)cc(C)c2c1 [1i, 6,8-Dimethoxy-4-methylquinolin-2(1H)-one] | > 91.3 | > 91.3 | inactive | –
10 | COc1cc(OC)c2c(c1)c(C)cc(=O)n2C [1j, 6,8-Dimethoxy-1,4-dimethylquinolin-2(1H)-one] | > 85.8 | > 85.8 | submicromolar range | –
11 | COc1ccc(OC)c2c(C)cc(=O)[nH]c12 [1k, 5,8-Dimethoxy-4-methylquinolin-2(1H)-one] | > 91.2 | > 91.2 | – | –
12 | COc1ccc(OC)c2c1c(C)cc(=O)n2C [1l, 5,8-Dimethoxy-1,4-dimethylquinolin-2(1H)-one] | > 85.7 | > 85.7 | submicromolar range | Increase in QR2 inhibitory potency relative to compound 1 (Human QR2): 10 fold
13 | COc1cc2c(C)cc(=O)[nH]c2c(OC)c1OC [1m, 6,7,8-Trimethoxy-4-methylquinolin-2(1H)-one] | > 80.3 | > 80.3 | – | –
14 | COc1cc2c(C)cc(=O)n(C)c2c(OC)c1OC [1n, 6,7,8-Trimethoxy-1,4-dimethylquinolin-2(1H)-one] | > 76 | > 76 | – | –
15 | COc1cc(OC)c2[nH]c(=O)cc(C)c2c1OC [1o, 5,6,8-Trimethoxy-4-methylquinolin-2(1H)-one] | – | – | – | Cytotoxicity (in words) [3]: low degree of cytotoxicity
16 | COc1cc(OC)c2c(c(C)cc(=O)n2C)c1OC [1p, 5,6,8-Trimethoxy-1,4-dimethylquinolin-2(1H)-one] | > 76 | – | – | Cytotoxicity (in words) [3]: low degree of cytotoxicity
17 | COc1c(OC)c(OC)c2c(C)cc(=O)[nH]c2c1OC [1q, 5,6,7,8-Tetramethoxy-4-methylquinolin-2(1H)-one] | > 71.7 | > 71.7 | – | QR2 inhibitory activity (in words) (Human QR2): completely inactive
18 | COc1c(OC)c(OC)c2c(c(C)cc(=O)n2C)c1OC [1r, 5,6,7,8-Tetramethoxy-1,4-dimethylquinolin-2(1H)-one] | > 68.2 | > 68.2 | submicromolar range | QR2 inhibitory activity (in words) (Human QR2): completely inactive
19 | COc1cc(=O)n(C)c2c3c(ccc12)OCO3 [compound 1, 6-Methoxy-9-methyl-[1,3]dioxolo[4,5-h]quinolin-8(9H)-one] | > 85.8 | > 85.8 | – | Inhibition of mutagenicity induced by 7,12-dimethylbenz[a]anthracene (DMBA) [4]: inhibit mutagenicity; Inhibition of formation of DMBA-induced preneoplastic lesions [5]: inhibition of the formation of DMBA-induced preneoplastic lesions
20 | Cc1cc(=O)n(C)c2c1C(=O)C=CC2=O [compound 12] | – | – | – | Cytotoxicity (in words) [3]: low degree of cytotoxicity
